Data published in patent US20030124571A1, “Novel human septin and uses therefor” (The Government of the United States of America, priority 2000, published 2003).

Key:
M-NRP1 cells [1] = assay: Apoptosis (DNA laddering, morphology), M-NRP1 cells; type: cell-based, rat; conditions: 24 hours; 10 ng/ml TGF-β, okadaic acid 30 nM, staurosporine 2 nM
Procedure: (§1) 2×10^5 M-NRP1 cells or NRP-154 cells were plated in 6-well dishes. After 24 hours, 2 ml DMEM/F12 containing 15 mM HEPES, 1% calf serum, and 0.1 μM dexamethasone were added to the plates. The cells were cultured at 37° C. for 24 hours and then detached by trypsinization.
(§2) Internucleosomal DNA ladders were detected with a modification (described below) of TACS apoptotic DNA ladder kit (Trevigen, Githersburg, Md.). Briefly, the detached cells were centrifuged at 600×g to form cell pellets. The cell pellets were then resuspended in 25 μl PBS and lysed by the addition of 25 μl of lysis buffer. DNA was purified from the mixture as directed by Trevigen.
(§3) The nicked ends of the DNA were ^32P-labeled by incubating 1 μg of DNA with 2.5 units of Klenow fragment of DNA Poll in the presence of 0.5 μCi of (α-^32P) dCTP (3 Ci/mmol, Dupont NEN, Boston, Mass.) for 30 min at room temperature in a 10 μl reaction volume containing 5 mM MgCl2 and 10 mM Tris-HCl (pH 7.5). One third of the labeled DNA was electrophoresed through 1.8% agarose-1×TAE at 70 V for 2 hours. Gels were dried and exposed to X-Omat AR (Kodak, Rochester, N.Y.) for about 1 hour.
Staurosporine and okadaic acid (Upstate Biotechnology Incorporated, Lake Placid, N.Y.) were dissolved in dimethyl sulfoxide (DMSO) and diluted to a final concentration of 2 nM and […], respectively, in 0.01% DMSO.
(§4) NRP-154 and M-NRP1 cells were treated with a control (i.e., the identical solution without the agent of interest) or with 10 ng/ml TGF-β, okadaic acid (30 nM) or staurosporine (2 nM) for 24 hours. Apoptosis was determined by DNA laddering, essentially as described in Example VA, above.

NRP-154 cells [2] = assay: Apoptosis / cell death (DNA laddering, morphology), NRP-154 cells; type: cell-based, rat; conditions: 24 hours; okadaic acid 30 nM, staurosporine 2 nM
Procedure: as §1, §2
as §3, with “Gels were dried and exposed to X-Omat AR (Kodak, Rochester, N.Y.) for about 1 hour.” left out
as §4

[3] = test system: cyclin A promoter construct (pCAL2) in M-NRP1 cells; assay: Cyclin A promoter construct pCAL2-luc luciferase assay, M-NRP1 cells; type: cell-based, rat; conditions: 24 hours of exposure to 10 ng/ml TGF-β
Procedure: (§5) M-NRP1 and NRP-154 cells were cultured in 10% fetal bovine serum as described by Chaudhary et al., (1998) J. Biol. Chem. 273: 17708-17712) and exposed to 10 ng/ml TGF-β1 for 24 hours.
(§6) M-NRP1 cells were transiently transfected with pCal-luc (a pCAL2 reporter construct described by Keeton et al., (1991) J. Biol. Chem. 266: 23048-23052) using the Lipofectamine (Gibco BRL Life Technologies, Gaithersburg, Md.) transfection reagent.
(§7) Activity of the transiently transfected cyclin A promoter construct, pCal2-luc, was assessed by a luciferase assay and measured using a luminometer. The basal activity (e.g., without TGF-β treatment) of pCAL2 was similar in MNRP-1 and NRP-154 cells.

NRP-154 cells [4] = conditions: 48-72 hours exposure to 10 ng/ml TGF-β; cited from earlier work
NRP-154 cells [5] = assay: Thymidine incorporation assay, NRP-154 cells; type: cell-based, rat; conditions: 24 hr treatment with 10 ng/ml TGF-β1
Procedure: (§8) M-NRP1 and NRP-154 cells were plated at 1×10^5 cells per well in 24 well plates and allowed to attach overnight. Incorporation of (^3H)-thymidine was measured by adding radioactivity for 3 hours, 24 hours after addition of control or 10 ng/ml TGF-β1. Plates were counted on a Packard Top Count. Parallel plates (e.g., those treated in an identical manner) were harvested by trypinization for counting in a Coulter Counter.

[6] = test system: cyclin A promoter construct (pCAL2) in NRP-154 cells; assay: Cyclin A promoter construct pCAL2-luc luciferase assay, NRP-154 cells; type: cell-based, rat; conditions: 24 hours of treatment with 10 ng/ml TGF-β
Procedure: as §5, §6, §7

M-NRP1 cells [7] = assay: Thymidine incorporation assay, M-NRP1 cells; type: cell-based, rat; conditions: 24 hr treatment with 10 ng/ml TGF-β1
Procedure: as §8

M-NRP1 cells [8] = assay: TUNEL assay, M-NRP1 cells; type: cell-based, rat; conditions: 10 ng/ml TGF-β, 24 hours
Procedure: (§9) TUNEL assays were performed using the TACS In Situ Apoptosis Detection Kit (Trevigen). Briefly, NRP-154 and M-NRP1 cells were plated at 8×10^4 cells/ml in a 96 well plate and allowed to attach overnight. Cells were then treated with either 10 ng/ml TGF-β (R&D Systems, Inc., Minneapolis, Minn.), or control (i.e., the identical solution without TGF-β) for 24 hours, fixed with formaldehyde and analyzed for stained nuclei according to the manufacturer's instructions.

COS cells = assay: TUNEL assay of transfected COS cells; type: cell-based, monkey; conditions: COS cells transfected with control vector, 10 ng/ml TGF-β for 24 hours
Procedure: COS cells were cultured as previously described (Section E, above). […] When these cells are transfected with ARTS and treatment with TGF-β they are induced to cell death.
COS cells were then transfected with control vector or wildtype ARTS, essentially as described above, and treated with 10 ng/ml TGF-β for 24 hours.
The apoptotic response of COS cells to TGF-β was assessed by a TUNEL assay ([…], now Roche, Indianapolis, Ind.) following the manufacturer's instructions.
COS cells were cultured and transfected, as described above, with equal concentrations of either pcDNA3 control vector, ARTS or M-ARTS-pcDNA3 using the Lipofectamine transfection reagent (Gibco BRL Life Technologies, Gaithersburg, Md.). The cells were treated with 1 o ng/ml TGF-β for 24 hours.
Apoptosis was examined in a TUNEL assay (Boehringer-Mannheim), according to the manufacturer's instructions.

NRP-154 cells [9] = assay: TUNEL assay, NRP-154 cells; type: cell-based, rat; conditions: 10 ng/ml TGF-β, 24 hours
Procedure: as §9

[10] = test system: caspase 3 in NRP-154 cells; assay: Caspase 3 fluorescent activity assay, NRP-154 cells; type: cell-based, rat; conditions: 10 ng/ml TGF-β 24 hours
Procedure: Cells were seeded to 50% confluence in six-well plates in media containing 10% fetal calf serum overnight. Following 24 hours after transfection, cells media was changed to contain 1% fetal calf serum with or without 10 ng/ml TGF-β for additional 24 hours. Cells were treated with caspase 3 aldehyde inhibitor (Ac-DEVD-CHO) supplied with caspase 3 fluorescent activity kit according to the manufacturers' protocols (Pharmingen, San-Diego, Calif.). Results were read using FL-600 microplate fluorescence reader (Bio-Tek).

Molecule | apoptosis (M-NRP1 cells [1]) | apoptosis (NRP-154 cells [2]) | activity of the pCal-luc reporter [3] | cell death (NRP-154 cells [4]) | (3H)-thymidine uptake inhibited (NRP-154 cells [5]) | pCAL2 activity [6] | (3H)-thymidine uptake stimulated (M-NRP1 cells [7]) [%] | TUNEL staining of nuclei (M-NRP1 cells [8]) | apoptosis (TUNEL) (COS cells) | TUNEL staining of nuclei (NRP-154 cells [9]) | caspase 3 activity [10]
C=C1[C@@H](O)[C@@H]2O[C@]3(CC[C@H](/C=C/[C@@H](C)[C@@H]4CC(C)=C[C@@]5(O[C@H](C[C@@](C)(O)C(=O)O)CC[C@H]5O)O4)O3)CC[C@H]2O[C@@H]1[C@@H](O)C[C@H](C)[C@H]1O[C@@]2(CCCCO2)CC[C@H]1C [okadaic acid] | remain sensitive to apoptosis | morphologically evident shrinkage, nuclear fragmentation, and loss of attachment characteristic of apoptosis |  |  |  |  |  |  |  |  | 
CN[C@@H]1C[C@H]2O[C@@](C)([C@@H]1OC)n1c3ccccc3c3c4c(c5c6ccccc6n2c5c31)C(=O)NC4 [staurosporine] | remain sensitive to apoptosis | morphologically evident shrinkage, nuclear fragmentation, and loss of attachment characteristic of apoptosis |  |  |  |  |  |  |  |  | 
TGF-β: recombinant human TGF-β1 (R&D Systems), transforming growth factor-β | resistant to apoptosis |  | unaffected | over 80% | greater than 80% | strong decrease | 14 | most nuclei from M-NRP1 cells remained intact | did not undergo apoptosis | strong TUNEL staining of apoptotic nuclei | caspase 3 was activated
